Results reported in patent US5538975A, “1,3-oxathiolane nucleoside compounds and compositions” (BioChem Pharma, Inc., priority 1991, dated 1996).
In brackets after ≈: the same amount, converted by molar mass. Read-outs that look alike come from different tables or passages of the source.

Key:
HIV-1 strain RF [1] = assay: microbe, parasite or virus in culture; conditions: Human immunodeficiency virus 1, MT4, in Homo sapiens, read-out: 50% Antiviral Activity, Formazan
Method: Antiviral activity of the compound of Example 1 was determined against HIV-1 in the following cell lines.
MT-4 cells, a human T-cell leukaemia cell line, infected with HIV-1 strain RF.
Antiviral activity in C8166 cells was determined by inhibition of syncytium formation (Tochikura et al Virology, 164, 542-546) and in MT-4 cells by inhibition of formazan conversion [Baba et al, Biochem Biophys Res Commun., 142, pp. 128-134 (1987); Mossman, J. Immun. Meth., 65, pp. 55-57 (1983)]. Antiviral activities were also determined by analyzing the amount of HIV p24 antigen synthesized in the presence and absence of enantiomers.

HIV-1 strain RF [2] = assay: Antiviral activity, inhibition of syncytium formation in C8166 cells; assay type: cell-based, HIV-1; C8166 human T-lymphoblastoid cell line
[3] = system: HIV p24 antigen (HIV-1 RF); assay: Inhibition of HIV p24 antigen synthesis in C8166 cells; assay type: cell-based, HIV-1; C8166 human T-lymphoblastoid cell line
in vitro = conditions: human
Method: The cytotoxicities of the compounds of Example 1 and the racemic compound (Intermediate 1) were determined in two CD4 cell lines: H9 and CEM.
Compounds for test were serially diluted from 100 μg/ml to 0.3 μg/ml (final concentrations) in 96 well microtitre plates. 3.6×10^4 cells were inoculated into each well of the plates including drug-free controls. After incubation at 37° C. for 5 days, the viable cell count was determined by removing a sample of cell suspension and counting trypan blue excluding cells in a hemocytometer.

CD4 cell lines = assay: Cytotoxicity of the enantiomers (general statement); assay type: cell-based; conditions: in words

Row | Compound | IC50 (HIV-1 strain RF [1]) [µg/mL] | IC50 (HIV-1 strain RF [2]; Human immunodeficiency virus 1, C8166 cells, HIV-1 RF, read-out: 50% Antiviral Activity, Inhibition of syncytium formation) [µg/mL] | IC50 ([3]; Human immunodeficiency virus 1, C8166 cells, virus RF, read-out: 50% Inhibition HIV p24 Synthesis) [µg/mL] | CC50 at 120 h (in vitro; cem cells) [µg/mL] | CC50 at 120 h (in vitro; h9 cells) [µg/mL] | cytotoxicity (CD4 cell lines) | IC50 (HIV-1 strain RF [2]; Human immunodeficiency virus 1, C8166, read-out: 50% Antiviral Activity, Inhibition of syncytium formation) [µg/mL] | IC50 ([3]; Human immunodeficiency virus 1, C8166, read-out: 50% Inhibition HIV p24 Synthesis) [µg/mL] | activity relative to the (+)-enantiomer (HIV)
1 | Nc1nc(=O)n([C@H]2CS[C@@H](CO)O2)cc1F [(+)-enantiomer, (+)-cis-2-hydroxymethyl-5-(5'-fluorocytosin-1'-yl) -1,3-oxathiolane] | > 1 | 0.04 (≈ 0.162 µM) | 0.1 (≈ 0.404 µM) | 217 (≈ 878 µM) | 334 (≈ 1350 µM) | unexpectedly low cytotoxicity |  |  | 
2 | Nc1nc(=O)n([C@@H]2CS[C@H](CO)O2)cc1F (relative stereo) [Intermediate 1, (±)-Cis-2-hydroxymethyl-5-(5'-fluorocytosin-1'-yl)1,3-oxathiolane] | 0.065 (≈ 0.263 µM) |  |  | 173 (≈ 700 µM) | 232 (≈ 938 µM) |  |  |  | 
3 | Cc1cn([C@H]2C[C@H](N=[N+]=[N-])[C@@H](CO)O2)c(=O)[nH]c1=O [AZT, 3'-azido-3'-deoxythymidine, reference compound] |  |  |  |  |  |  | 0.0038 (≈ 0.0142 µM) | 0.017 (≈ 0.0636 µM) | 
4 | Nc1nc(=O)n([C@@H]2CS[C@H](CO)O2)cc1F [(-)-enantiomer, (-)-4-amino-5-fluoro-1-(2-hydroxymethyl-1,3-oxathiolan-5-yl)-(1H)-pyrimidin-2-one] | 0.14 (≈ 0.566 µM) |  |  | 148 (≈ 599 µM) | 296 (≈ 1200 µM) | unexpectedly low cytotoxicity |  |  | much more active than the (+)-enantiomer
